Results reported in patent publication EP3565534B1, “POLYMERIC NANOPARTICLES ENCAPSULATING A COMBINATION OF NATURAL BIO-ACTIVES TRANS-RESVERATROL(RSV) AND CELASTROL(CL), A PROCESS FOR THE PREPARATION AND USE THEREOF IN THE TREATMENT OF PROSTATE CANCER” (Università degli Studi di Sassari, priority 2017, dated 2018).
Read-outs that look alike come from different tables or passages of the source.

How the values were obtained:
[1] = cited from earlier work
[2] = test system: prostate cancer cell lines (C-42, DU-145, and PC-3 cells); test: MTT assay, antiproliferative efficacy, results stated for all three cell lines together; type: cell-based; details: 72 hours; non-encapsulated, alone; RSV 20, 30, 40 µM; CL 0.250, 0.375, 0.5 µM
Protocol: Finally, in vitro cytotoxicity studies were performed in order to evaluate whether co-administration of encapsulated RSV and CL would have allowed an increase in the antiproliferative efficacy compared to single molecules, both as such and formulated in nanosystems, on androgen-dependent (C-42 cells) and androgen-independent (DU-145 and PC-3 cells) prostate cancer cell lines (PCa).
The antiproliferative efficacy of the NPs of the present invention was evaluated using the MTT assay (3-[4,5-dimethylthiazol-2-yl]-2,5-diphenyl tetrazolium bromide) applying the procedure described in Sanna V., et al., Resveratrol-loaded nanoparticles based on poly(epsilon-caprolactone) and poly(D,L-lactic-co-glycolic acid)-poly(ethylene glycol) blend for prostate cancer treatment. Mol. Pharm. 2013 Oct 7;10(10):3871-81, which, as a result, is included herein as a reference in its entirety.
Each experiment was repeated 3 or 5 times (n = 3 or 5).

Row | Structure (SMILES) | solubility in water ([1]; result in words) | viability [2] | solubility in water [1]
1 | CC1=C(O)C(=O)C=C2C1=CC=C1[C@@]2(C)CC[C@@]2(C)[C@@H]3C[C@](C)(C(=O)O)CC[C@]3(C)CC[C@]12C [CL, Celastrol] | insoluble |  | 
2 | Oc1ccc(/C=C/c2cc(O)cc(O)c2)cc1 [RSV, trans-3,5,4'-trihydroxy-stilbene] |  | reduction of viability that is generally dose-dependent | 3 mg/100 mL
